Reference: patent US20140155384A1, “COMPOUNDS AND METHODS OF TREATING DIABETES” (Medivation Technologies, Inc., priority 2011, published 2014)

Tests used:
[1] = biological target: T1, human recombinant adrenergic α2B receptor (Homo sapiens, UniProt P18089); assay: Radioligand binding, adrenergic α2B receptor ([3H]Rauwolscine); details: CHO-K1 cells; for inhibition at 0.03 µM / inhibition at 0.1 µM: read-out: Percentage inhibition of ligand binding, Adrenergic α2B
T1 construct: expressed in transfected cells; host or cells: CHO-K1
T1 sequence (P18089 1-450): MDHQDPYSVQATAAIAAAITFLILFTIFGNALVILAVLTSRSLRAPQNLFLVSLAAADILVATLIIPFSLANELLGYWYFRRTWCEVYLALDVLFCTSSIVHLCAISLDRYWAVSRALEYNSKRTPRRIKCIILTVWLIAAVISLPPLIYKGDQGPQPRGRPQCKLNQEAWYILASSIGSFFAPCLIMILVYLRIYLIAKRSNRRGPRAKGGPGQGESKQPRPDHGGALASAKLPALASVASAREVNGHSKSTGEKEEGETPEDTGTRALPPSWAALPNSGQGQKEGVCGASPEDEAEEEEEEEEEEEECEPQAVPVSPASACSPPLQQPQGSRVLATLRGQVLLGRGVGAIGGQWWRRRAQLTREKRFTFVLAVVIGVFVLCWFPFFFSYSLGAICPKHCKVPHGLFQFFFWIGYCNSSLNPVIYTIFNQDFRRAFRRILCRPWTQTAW
Outline: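 Percent inhibition of specific [3H]Rauwolscine (2.5 nM) binding, compounds at ≤1 μM, 1% DMSO vehicle, 10 μM prazosin defining nonspecific. Receptor: human α2B expressed in CHO-K1 cells, 60 min incubation at 25 °C in Tris-HCl pH 7.4 buffer (MgCl2, EDTA, BSA); filtered, washed, counted.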

[2] = biological target: T2, rat adrenergic α1B receptor (Rattus norvegicus, UniProt P15823); assay: Radioligand binding, adrenergic α1B receptor ([3H]Prazosin); details: Wistar rat liver
T2 construct: rat adrenergic α1B receptor obtained from Wistar Rat liver; from tissue; host or cells: Wistar rat liver
T2 sequence (P15823 1-515): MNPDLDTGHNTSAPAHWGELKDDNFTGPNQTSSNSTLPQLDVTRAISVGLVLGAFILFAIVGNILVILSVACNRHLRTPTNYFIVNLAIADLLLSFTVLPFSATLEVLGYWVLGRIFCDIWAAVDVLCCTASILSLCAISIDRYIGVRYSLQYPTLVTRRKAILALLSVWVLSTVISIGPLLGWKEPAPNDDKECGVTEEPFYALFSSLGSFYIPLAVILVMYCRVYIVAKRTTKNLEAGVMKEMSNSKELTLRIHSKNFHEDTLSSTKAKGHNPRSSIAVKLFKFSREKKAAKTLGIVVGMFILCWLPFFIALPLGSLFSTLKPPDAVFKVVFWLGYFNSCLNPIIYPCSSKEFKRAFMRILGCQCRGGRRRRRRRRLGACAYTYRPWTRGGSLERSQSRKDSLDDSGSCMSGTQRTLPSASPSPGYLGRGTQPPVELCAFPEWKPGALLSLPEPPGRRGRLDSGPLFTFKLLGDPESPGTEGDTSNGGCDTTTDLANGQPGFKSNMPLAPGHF
Outline: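 Wistar rat liver α1B receptor preparation incubated with 0.25 nM [3H]prazosin and compound for 60 min at 25° C in 50 mM Tris-HCl pH 7.4, 0.5 mM EDTA; nonspecific binding defined with 10 μM phentolamine.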

[3] = biological target: T3, human recombinant adrenergic α1D receptor (Homo sapiens, UniProt P25100); assay: Radioligand binding, adrenergic α1D receptor ([3H]Prazosin); details: 0.1 μM compound; HEK-293 cells; 0.6 nM [3H]Prazosin; read-out: Percentage inhibition of ligand binding, Adrenergic α1D
T3 construct: expressed in transfected cells; host or cells: HEK-293
T3 sequence (P25100 1-572): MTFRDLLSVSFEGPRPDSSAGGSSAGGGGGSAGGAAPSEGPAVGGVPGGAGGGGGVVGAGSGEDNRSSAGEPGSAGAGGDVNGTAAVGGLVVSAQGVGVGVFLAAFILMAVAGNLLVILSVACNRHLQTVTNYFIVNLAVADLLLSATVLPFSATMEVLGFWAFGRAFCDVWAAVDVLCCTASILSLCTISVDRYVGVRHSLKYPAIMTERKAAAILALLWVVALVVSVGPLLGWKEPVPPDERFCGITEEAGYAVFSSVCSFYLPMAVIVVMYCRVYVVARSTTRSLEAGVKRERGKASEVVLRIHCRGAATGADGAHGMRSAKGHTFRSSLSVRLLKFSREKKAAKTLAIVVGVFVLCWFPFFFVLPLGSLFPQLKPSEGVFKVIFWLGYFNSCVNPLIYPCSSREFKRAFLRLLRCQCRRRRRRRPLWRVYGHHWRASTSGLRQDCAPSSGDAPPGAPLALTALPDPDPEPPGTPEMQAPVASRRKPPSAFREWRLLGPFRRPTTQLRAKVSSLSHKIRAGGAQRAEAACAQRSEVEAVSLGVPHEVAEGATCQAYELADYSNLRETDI
Method: Compounds were incubated with 0.6 nM [3H]Prazosin for 60 min at 25° C. Non-specific binding was estimated in the presence of 10 μM phentolamine. Receptor proteins were filtered and washed, the filters were then counted to determine [3H]Prazosin specifically bound. Compounds were screened at 1 μM or lower, using 1% DMSO as vehicle. Biochemical assay results are presented as the percent inhibition of specific binding in Table 2.

[4] = 0.1 μM compound, read-out: Percentage inhibition of ligand binding, Adrenergic α1B

Structure (SMILES)	inhibition at 0.03 µM ([1]; 0.03 μM compound) [%]	inhibition at 0.1 µM ([1]; 0.1 μM compound) [%]	inhibition at 0.1 µM [2, 4] [%]	inhibition at 0.1 µM [3] [%]	Percentage inhibition of ligand binding, Adrenergic α2B ([1]; 0.1 μM compound) [%]	Percentage inhibition of ligand binding, Adrenergic α2B ([1]; 0.03 μM compound) [%]	inhibition at 0.03 µM ([2]; 0.03 μM compound, read-out: Percentage inhibition of ligand binding, Adrenergic α1B) [%]	Percentage inhibition of ligand binding, Adrenergic α1B ([2]; 0.1 μM compound) [%]
Cc1csc(-c2cscc2-n2c3c(c4cc(C)ccc42)CN(C)CC3)c1 [Compound 50]	97	103	42	51				
Cc1ccc2c(c1)c1c(n2-c2cscc2-c2ccc3cnccc3c2)CCN(C)C1 [Compound No. 68]	71	86	61	68	93			
Cc1ccc2c(c1)c1c(n2-c2ccccc2-c2cccn2C)CCN(C)C1 [Compound No. 100, 2,8-dimethyl-5-(2-(1-methyl-1H-pyrrol-2-yl)phenyl)-2,3,4,5-tetrahydro-1H-pyrido[4,3-b]indole]	103	99	79	64	109			
Cc1ccc2c(c1)c1c(n2-c2ccccc2-c2ccc3c(ccn3C)c2)CCN(C)C1 [Compound No. 85, 2,8-dimethyl-5-(2-(1-methyl-1H-indol-5-yl)phenyl)-2,3,4,5-tetrahydro-1H-pyrido[4,3-b]indole]	89	98	36	62	102			
Cc1ccc2c(c1)c1c(n2-c2cscc2-c2ccc3c(ccn3C)c2)CCN(C)C1 [Compound 33]	100	95		69		102	46	73
Cc1ccc2c(c1)c1c(n2-c2cscc2-c2ccc(S(C)(=O)=O)cc2)CCN(C)C1 [Compound No. 76]	89	94	68	73	100			
Cc1ccc2c(c1)c1c(n2-c2cscc2-c2ccc(C)s2)CCN(C)C1 [Compound No. 79]	102	104	51	53				
COc1ccc(-c2cscc2-n2c3c(c4cc(C)ccc42)CN(C)CC3)cc1 [Compound 37]	104	96	77	79	104			
